Source: patent US4588525A, “Prodrug compounds for dermal application” (Molecular Biosystems, Inc., priority 1984, dated 1986)

How the values were obtained:
human lung fibroblasts = assay: Inhibition of growth of human lung fibroblasts in culture; format: cell-based; settings: for IC50: Homo sapiens, Fibroblast, growth inhibition 50%, usually 3-4 days, 10^4 cells/35 mm dish, Coulter counter, read-out: ID50 (the source's name)
Description: Drugs were evaluated by their ability to inhibit the growth of human lung fibroblasts in culture. Human lung fibroblasts were grown in Eagle's Minimal Essential Media (EMEM) which contained 10% fetal calf serum, 1X non-essential amino acids, and 250 units penicillin and 250 μg streptomycin/ml. Stock cultures of the cells were grown on 100 mm culture plates. For testing purposes, cells were removed from the stock plates with 3 mls trypsin/versene and after appropriate dilution in the culture medium were plated onto 35 mm dishes. Typically, cells were subcultured at 10^4 cells/35 mm dish in 1.5 mls of medium and allowed to attach for 24 hours before the addition of drugs. Triplicate plates were treated with drugs over a wide concentration range. In some cases, it was necessary to dissolve stock solutions of the drugs with 50% ethanol. In such cases, appropriate controls were included to assure that the ethanol had no adverse effects. In all cases, untreated triplicate control plates were employed in order to determine the cell population at the time of drug addition and at the time of experiment ccmpletion (usual 3-4 days). The number of cells on the test and control plates was determined by first removing the medium by aspiration followed by gentle washing with 1 ml phosphate buffered saline. Trypsin/versene (0.5 ml) was then added and the plates incubated at 37° C. for up to 15 minutes or until the cells became detached. One milliliter of EMEM which contained 1X non-essential amino acids was then added in order to neutralize the action of trypsin. The cells were then diluted into ISOTON II (Curtin Matheson Scientific, Houston, Tex.) and counted on a Coulter counter (Coulter Electronics, Hialeah, Fla.) according to the Coulter counter owner's manual.

[1] = in vivo; cited from earlier work
[2] = topical, unless accompanied by oral nicotinamide; cited from earlier work
cancer = settings: use questionable due to the CNS side effects; cited from earlier work
cellular enzymes = assay: Conversion by cellular enzymes to active 6-aminonicotinamide (interpretation of Table A); format: cell-based, human
Description: Such cleavages might be exploited to retain local activity but to eliminate systemic toxicity.

Structure (SMILES)	IC50 (human lung fibroblasts) [µM]	other results
NC(=O)c1ccc(N)nc1 [6-Aminonicotinamide, 6-aminonicotinamide]	2	effectiveness against psoriasis compared with methotrexate [1]: more effective against psoriasis than methotrexate; central nervous system toxicity (CNS) [2]: a central nervous system toxicity (CNS) may result; anti-cancer activity (cancer): anti-cancer activity
CCOC(=O)CCCCC(=O)Nc1ccc(C(N)=O)cn1 [6-Aminonicotinamide-N^6 --apidic acid ethyl ester]	30	
CCCCOC(=O)CCC(=O)Nc1ccc(C(N)=O)cn1 [6-Aminonicotinamide-N^6 --succinate butyl ester]	20	
CCOC(=O)CCC(=O)Nc1ccc(C(N)=O)cn1 [6-Aminonicotinamide-N^6 --succinate ethyl ester]	5	
CCCCCCOC(=O)CCC(=O)Nc1ccc(C(N)=O)cn1 [6-Aminonicotinamide-N^6 --succinate hexyl ester]	20	
COC(=O)CCC(=O)Nc1ccc(C(N)=O)cn1 [6-Aminonicotinamide-N^6 --succinate methyl ester]	20	
NC(=O)c1ccc(NC(=O)CCC(=O)O)nc1 [6-Aminonicotinamide-N^6 --succinic acid, 6-aminonicotinamide-N^6-succinic acid]	2000	activity (inhibition of cell growth), in words (human lung fibroblasts; interpretation of Table A): essentially inactive
NC(=O)c1ccc(NC(=O)CCC(=O)N2CCCCC2)nc1 [6-Aminonicotinamide-N^6-succinyl piperidate]		conversion by cellular enzymes to active 6-aminonicotinamide (cellular enzymes): readily converted; efficiency of conversion compared with the other alkyl or ester analogues (cellular enzymes): more efficient
NC(=O)c1ccc(NC(=O)CCC(=O)N2CCOCC2)nc1 [6-Aminonicotinamide-N^6-succinylmorpholidate]		conversion by cellular enzymes to active 6-aminonicotinamide (cellular enzymes): readily converted; efficiency of conversion compared with the other alkyl or ester analogues (cellular enzymes): more efficient
CCCCCCC(=O)Nc1ccc(C(N)=O)cn1 [N^6 --heptanoyl-6-aminonicotinamide]	20	
